In a compilation of properties of binary mixtures (doi:10.1021/acs.jced.0c00987):

Assay: xn = mol fraction of the nth substance listed
Settings: 100 kPa

CCOS(=O)(=O)[O-].CC[n+]1ccn(C)c1 + OCCO
Settings	electrical conductivity, 298.15 K [S/m]	electrical conductivity, 313.15 K [S/m]	viscosity, 293.15 K [mPa·s]	viscosity, 298.15 K [mPa·s]	viscosity, 303.15 K [mPa·s]	viscosity, 313.15 K [mPa·s]
x1 = 0.001	–	0.0161	–	–	13.5	9.345
x1 = 0.003	0.0213	–	20.6	16.7	–	–
x1 = 0.008	0.057	–	20.6	16.7	13.7	–
x1 = 0.014	0.096	0.162	20.3	16.5	13.5	9.4
x2 = 0	–	–	123.5	–	75.7	49.7
x2 = 0.304	0.68	1.13	54.6	44.5	36.7	25.1
x2 = 0.406	0.79	–	–	34.4	28.7	–
x2 = 0.506	0.86	1.36	32.3	26.9	22.7	16.6
x2 = 0.597	–	1.48	25.8	–	18.3	13.5
x2 = 0.7	0.97	1.51	20.9	17.6	14.9	11
x2 = 0.792	0.87	1.38	18.4	15.4	–	9.59
x2 = 0.851	–	1.16	17.8	–	12.5	9.08
x2 = 0.899	0.53	0.86	18	14.9	12.4	8.92
x2 = 0.938	0.36	–	18.6	15.3	12.7	–
x2 = 0.972	0.178	0.299	19.7	16.1	13.2	9.28
